Test results: patent US20260373156A1, “CANCER TREATMENTS USING MTA-COOPERATIVE PRMT5 INHIBITORS” (AMGEN INC., priority 2022, published 2026)

Key:
[1] = system: H292 cells; assay: CellTiter-Glo viability and CalcuSyn synergy, PRMT5 inhibitor + palbociclib, 6 days; settings: for Combination Fa: 8640 min
[2] = system: A549 cells; assay: as above; settings: for Combination Fa: 8640 min
[3] = Compound B 0.0425 μM + palbociclib 0.044102 μM
[4] = Compound B 0.0425 μM + palbociclib 0.079383 μM
[5] = Compound B 0.0425 μM + palbociclib 0.14289 μM
[6] = Compound B 0.0425 μM + palbociclib 0.257202 μM
[7] = Compound B 0.0425 μM + palbociclib 0.462963 μM
[8] = Compound B 0.0425 μM + palbociclib 0.833333 μM
[9] = Compound B 0.0425 μM + palbociclib 1.5 μM
[10] = Compound B 0.1535 μM + palbociclib 0.298023 μM
[11] = Compound B 0.1535 μM + palbociclib 0.476837 μM
[12] = Compound B 0.1535 μM + palbociclib 0.762939 μM
[13] = Compound B 0.1535 μM + palbociclib 1.2207 μM
[14] = Compound B 0.1535 μM + palbociclib 1.95313 μM
[15] = Compound B 0.1535 μM + palbociclib 3.125 μM
[16] = Compound B 0.1535 μM + palbociclib 5 μM

`Cc1cc2cc(C(=O)N(Cc3ccc(C(F)(F)F)cn3)[C@@H](C)c3ncccn3)ccc2nc1N` [Compound B] was tested, and the “Computed CI value” [1, 3] was 0.421, the “Combination Fa” value [1, 3] was 0.6807 and the “Computed CI value” [1, 4] was 0.403. The “Combination Fa” value [1, 4] was 0.7009, the “Computed CI value” [1, 5] was 0.284 and the “Combination Fa” value [1, 5] was 0.7704. The “Computed CI value” [1, 6] was 0.308, the “Combination Fa” value [1, 6] was 0.7959 and the “Computed CI value” [1, 7] was 0.395. The “Combination Fa” value [1, 7] was 0.8126, the “Computed CI value” [1, 8] was 0.587 and the “Combination Fa” value [1, 8] was 0.8205. For the same molecule, the “Computed CI value” [1, 9] was 0.878, the “Combination Fa” value [1, 9] was 0.8344 and the “Computed CI value” [2, 10] was 0.293. For the same molecule, the “Combination Fa” value [2, 10] was 0.6994, the “Computed CI value” [2, 11] was 0.341 and the “Combination Fa” value [2, 11] was 0.7105. The “Computed CI value” [2, 12] was 0.497, the “Combination Fa” value [2, 12] was 0.7007 and the “Computed CI value” [2, 13] was 0.421. For the same molecule, the “Combination Fa” value [2, 13] was 0.7619, the “Computed CI value” [2, 14] was 0.626 and the “Combination Fa” value [2, 14] was 0.761. The “Computed CI value” [2, 15] was 0.685, the “Combination Fa” value [2, 15] was 0.7958 and the “Computed CI value” [2, 16] was 0.377. The “Combination Fa” value [2, 16] was 0.8818.
